Test results from PMC3389674, “Comparison of Soluble Guanylate Cyclase Stimulators and Activators in Models of Cardiovascular Disease Associated with Oxidative Stress” (Frontiers in Pharmacology, 2012).

Target: T1, sGC (Rattus norvegicus, UniProt P20595)
T1 construct: in rat aortic smooth muscle cells; endogenous in cells; host or cells: primary rat aortic smooth muscle cells
T1 sequence (P20595 1-619): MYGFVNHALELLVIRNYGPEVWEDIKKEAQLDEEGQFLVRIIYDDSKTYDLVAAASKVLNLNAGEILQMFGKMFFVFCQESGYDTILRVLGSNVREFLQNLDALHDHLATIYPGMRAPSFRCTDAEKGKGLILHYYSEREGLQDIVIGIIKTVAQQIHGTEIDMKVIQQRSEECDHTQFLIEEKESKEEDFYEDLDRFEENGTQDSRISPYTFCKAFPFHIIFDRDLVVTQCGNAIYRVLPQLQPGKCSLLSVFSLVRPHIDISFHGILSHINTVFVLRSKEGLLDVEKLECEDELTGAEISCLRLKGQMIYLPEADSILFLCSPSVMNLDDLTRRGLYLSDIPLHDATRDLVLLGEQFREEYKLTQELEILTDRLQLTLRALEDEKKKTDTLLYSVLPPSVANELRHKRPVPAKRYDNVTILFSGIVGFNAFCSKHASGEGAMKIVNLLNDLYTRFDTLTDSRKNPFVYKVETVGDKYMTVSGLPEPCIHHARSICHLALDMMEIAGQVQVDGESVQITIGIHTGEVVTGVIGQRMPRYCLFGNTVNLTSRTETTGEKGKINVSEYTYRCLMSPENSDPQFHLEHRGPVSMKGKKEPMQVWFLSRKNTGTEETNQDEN
T1 sequence (P19686 1-690 partner): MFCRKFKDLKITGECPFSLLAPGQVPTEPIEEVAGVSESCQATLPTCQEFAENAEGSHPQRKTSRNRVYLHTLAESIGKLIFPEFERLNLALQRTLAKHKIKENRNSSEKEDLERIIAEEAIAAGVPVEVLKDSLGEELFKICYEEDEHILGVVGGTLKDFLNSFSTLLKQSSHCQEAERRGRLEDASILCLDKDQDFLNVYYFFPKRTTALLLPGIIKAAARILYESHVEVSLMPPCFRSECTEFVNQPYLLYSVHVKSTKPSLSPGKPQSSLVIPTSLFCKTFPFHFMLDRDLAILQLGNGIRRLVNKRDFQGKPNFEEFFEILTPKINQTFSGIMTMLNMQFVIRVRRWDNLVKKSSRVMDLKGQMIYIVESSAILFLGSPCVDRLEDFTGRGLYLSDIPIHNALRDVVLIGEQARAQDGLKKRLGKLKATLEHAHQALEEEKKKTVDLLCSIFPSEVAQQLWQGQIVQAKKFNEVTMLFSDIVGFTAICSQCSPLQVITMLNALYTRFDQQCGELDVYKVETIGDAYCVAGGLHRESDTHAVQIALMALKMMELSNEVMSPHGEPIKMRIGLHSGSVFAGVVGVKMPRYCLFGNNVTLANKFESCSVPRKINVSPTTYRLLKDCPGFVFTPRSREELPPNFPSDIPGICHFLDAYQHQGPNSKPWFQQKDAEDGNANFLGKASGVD
Experiment: P-VASP formation in rat aortic smooth muscle cells
Assay type: cell-based
Method: The potency, efficacy, and mechanism of action of the sGC modulators GSK2181236A and BAY 60-4552 were assessed by measuring phosphorylation of the protein kinase G (PKG) substrate […] (VASP) in rat aortic smooth muscle cells. […] Dimethylsulfoxide (DMSO) vehicle or varying concentrations of GSK2181236A (2 pM to 1 μM) or BAY 60-4552 (15 nM to 100 μM) were then added. Following a 30 min incubation at 37°C, media was aspirated and the cells were rinsed with phosphate-buffered saline (PBS) and fixed with 4% formaldehyde in PBS by incubating at room temperature for 20 min. Cells were then washed with PBS and permeabilized for 10 min using 0.1% triton X-100 in PBS. Following PBS rinsing, the cells were blocked for 90 min at room temperature with Odyssey Blocking Buffer (LI-COR, Cambridge, UK). The buffer was aspirated and the cells were treated overnight at 4°C with primary antibody [(pSer^239) VASP, rabbit polyclonal Ab, Cell Signaling Technology, Danvers, MA, USA] diluted 1:500 in Odyssey Blocking Buffer. Following three washes with 0.05% Tween 20, the cells were treated for 1 h at room temperature with secondary antibody (IRDye® 800CW Donkey Anti-Rabbit IgG, LI-COR) diluted 1:2500 in Odyssey Blocking Buffer with 0.05% Tween 20. Following two washes with PBS, infrared fluorescence was measured using an Odyssey Infrared Imaging System (LI-COR).

Structure (SMILES)	EC50 (Control (no ODQ))	Emax, P-VASP formation (Control (no ODQ))	rightward-shift of P-VASP concentration-response curve by ODQ (ODQ 10 μM vs control)	suppression of P-VASP maximal response by ODQ (trend) (ODQ 10 μM vs control)	EC50 (ODQ (10 μM) pre-treatment)	Emax, P-VASP formation (ODQ (10 μM) pre-treatment)	leftward-shift of P-VASP concentration-response curve by ODQ (ODQ 10 μM vs control)	Emax (ODQ 10 μM vs control, read-out: augmentation of P-VASP maximal response by ODQ)
COC(=O)Nc1c(N)nc(-c2nn(Cc3ccccc3F)c3ncccc23)nc1N [BAY 60-4552]	0.353 ± 0.089 µM	388 ± 39 % DMSO	9.8 fold	7%	3.26 µM	362 ± 24 % DMSO	–	–
Cc1cc(-c2ccc(OC(F)(F)F)cc2)ccc1COc1ccccc1-c1cccc(-n2ncc(C(=O)O)c2C(F)(F)F)n1 [GSK2181236A, 1-(6-{2-[({3-methyl-4′-[(trifluoromethyl)oxy]-4-biphenylyl}methyl)oxy]phenyl}-2-pyridinyl)-5-(trifluoromethyl)-1H-pyrazole-4-carboxylic acid]	0.0127 ± 0.0047 µM	379 ± 26 % DMSO	–	–	0.0027 ± 0.0006 µM	502 ± 26 % DMSO	4.7 fold	32%
